Columns and labels:
[1] = test system: Fusarium subglutinans f. sp. pini; experiment: bioassay based on inhibition of radial growth on potato dextrose agar (colony diameter); type: cell-based, Fusarium subglutinans f. sp. pini (isolate SL-1, UCB); conditions: for Radical Growth of Fusarium subglutinas f.sp. pini (colony diameter): 18° C, 5 days; for radical growth of Fusarium subglutinans: cinnamic aldehyde in vehicle with or without saponin, glutaraldehyde 2%
Method: A bioassay based on inhibition of radial growth of Fusarium subglutinans f. sp. pini was used to test various aldehyde formulations. The bioassay was performed in a double blind fashion under sterile conditions. All concentrations given are those of particular solutions before dilution in the agar. Eight ml of test formulation was pipetted into 200 ml of molten 2% potato dextrose agar (DIFCO), and the mixture was dispersed into 5 plastic petri dishes (25 ml dish). Test formulations of 5 ppm benomyl were used as a positive control and sterile H2O as a negative control. Each of four plates was inoculated at the center with an agar plug transferred from a growing PDA culture of Fusarium subglutinans f. sp. pini (isolate SL-1, UCB) for each test formulation. A fifth plate was left noninoculated as a control for inhibited growth.
All inoculated and non-inoculated plates were incubated at 18° C for 5 days, after which colony diameters were measured. […] No growth of the colony (diameter=0) indicates a maximum growth inhibition.

[2] = at 25°C; cited from earlier work
[3] = vapor pressure; type: physicochemical; conditions: at 25°C

CCCCNC(=O)n1c(NC(=O)OC)nc2ccccc21 [Benomyl, reference compound]
Radical Growth of Fusarium subglutinas f.sp. pini (colony diameter) ([1]; positive control, 5 ppm benomyl, no Cinnamic Aldehyde): 0

CCCCCCC(C=O)=Cc1ccccc1 [HCA, 2-hexyl-3-phenyl-2-propenal]
vapor pressure [2]: 70 x 10^-5 mm Hg

O=CCCCC=O [Glutaraldehyde, reference compound]
Radical Growth of Fusarium subglutinas f.sp. pini (colony diameter) ([1]; 2% glutaraldehyde, no Cinnamic Aldehyde): 3.663
radical growth of Fusarium subglutinans ([1]; result in words): inhibited

CCN(CC)c1cccc(C)c1 [N,N-diethyl-m-toluamine, reference compound]
vapor pressure [2]: 167 x 10^-5 mm Hg

cinnamic aldehyde
Radical Growth of Fusarium subglutinas f.sp. pini (colony diameter) ([1]; Cinnamic Aldehyde 10 ppm in 2% Tween 80, 6% NaHCO3, with Saponin): 4.088
Radical Growth of Fusarium subglutinas f.sp. pini (colony diameter) ([1]; Cinnamic Aldehyde 10 ppm in 2% Tween 80, 6% NaHCO3, no additive, concentration before dilution in agar): 4.363
Radical Growth of Fusarium subglutinas f.sp. pini (colony diameter) ([1]; Cinnamic Aldehyde 100 ppm in 2% Tween 80, 6% NaHCO3, with Saponin): 4.300
Radical Growth of Fusarium subglutinas f.sp. pini (colony diameter) ([1]; Cinnamic Aldehyde 100 ppm in 2% Tween 80, 6% NaHCO3, no additive, concentration before dilution in agar): 4.238
Radical Growth of Fusarium subglutinas f.sp. pini (colony diameter) ([1]; Cinnamic Aldehyde 2,500 ppm in 2% Tween 80, 6% NaHCO3, with Saponin): 3.600
Radical Growth of Fusarium subglutinas f.sp. pini (colony diameter) ([1]; Cinnamic Aldehyde 2,500 ppm in 2% Tween 80, 6% NaHCO3, no additive, concentration before dilution in agar): 3.513
Radical Growth of Fusarium subglutinas f.sp. pini (colony diameter) ([1]; Cinnamic Aldehyde 5000 ppm in 2% Tween 80, 6% NaHCO3, with Saponin): 2.913
Radical Growth of Fusarium subglutinas f.sp. pini (colony diameter) ([1]; Cinnamic Aldehyde 5000 ppm in 2% Tween 80, 6% NaHCO3, no additive, concentration before dilution in agar): 2.980
Radical Growth of Fusarium subglutinas f.sp. pini (colony diameter) ([1]; Cinnamic Aldehyde 12,500 ppm in 2% Tween 80, 6% NaHCO3, with Saponin): 0
Radical Growth of Fusarium subglutinas f.sp. pini (colony diameter) ([1]; Cinnamic Aldehyde 12,500 ppm in 2% Tween 80, 6% NaHCO3, no additive, concentration before dilution in agar): 0
Radical Growth of Fusarium subglutinas f.sp. pini (colony diameter) ([1]; Cinnamic Aldehyde 25,000 ppm in 2% Tween 80, 6% NaHCO3, with Saponin): 0
Radical Growth of Fusarium subglutinas f.sp. pini (colony diameter) ([1]; Cinnamic Aldehyde 25,000 ppm in 2% Tween 80, 6% NaHCO3, no additive, concentration before dilution in agar): 0
Radial growth ([1]; result in words, at 12,500 ppm): completely inhibited
radical growth of Fusarium subglutinans ([1]; result in words): inhibited
vapor pressure [2]: 2970 x 10^-5 mm Hg
vapor pressure relative to HCA [3]: approximately 40 times higher

— patent publication EP1000543A1, “A method for inducing resistance of plants to mycotoxin-producing fungi” (PROGUARD, INC., priority 1994, dated 1996)
